Assay results taken from ChEMBL document CHEMBL1201862, “PubChem BioAssay data set” (2004).
One block for each molecule: values may come before it. Active and inactive are the calls of the source.

Legend:
[1] = T. cruzi growth inhibition in host cells, dose response, cell-based, plate reader, dry powder, set 2 (AID 652275); format: functional
[2] = viability loss in HepG2 hepatoma cells – cell-based, ATP luminescence, cherry-pick, activator set 2, cytotoxicity control, dose response (AID 1053143); format: functional
[3] = molecular target: Protein disulfide-isomerase (Homo sapiens, UniProt P07237); assay: inhibition of PDI-mediated insulin reduction – biochemical, turbidity, dry powder samples, set 2, confirmation (AID 652146)
Protein Wnt-3a = Protein Wnt-3a (Mus musculus, UniProt P27467); assay: SAR analysis of small molecule antagonists of Gli-SUFU in a Wnt3a luminescent reporter assay.; format: functional
CAAX prenyl protease 2 = molecular target: T1, CAAX prenyl protease 2 (Homo sapiens, UniProt Q9Y256); assay: inhibition of Ras-converting CAAX protease Rce1 – biochemical, yeast membranes, quenched-peptide fluorescence, cherry-pick, dose response (AID 588849)
T1 sequence (Q9Y256 whole entry): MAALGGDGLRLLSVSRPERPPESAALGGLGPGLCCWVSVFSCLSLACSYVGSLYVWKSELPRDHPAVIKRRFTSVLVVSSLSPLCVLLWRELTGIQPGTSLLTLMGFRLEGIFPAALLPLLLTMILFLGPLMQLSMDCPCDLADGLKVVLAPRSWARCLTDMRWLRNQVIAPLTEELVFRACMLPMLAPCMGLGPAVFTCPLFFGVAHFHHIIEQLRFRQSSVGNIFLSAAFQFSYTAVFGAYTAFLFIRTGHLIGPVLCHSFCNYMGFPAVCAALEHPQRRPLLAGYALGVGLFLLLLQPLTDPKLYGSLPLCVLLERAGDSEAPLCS

Trypsin = Trypsin (Sus scrofa, UniProt P00761); assay: trypsin protease activity blockade – biochemical, quenched peptide fluorescence, cherry-pick, selectivity assay for Rce1 protease inhibitor project, dose response (AID 488789)
[4] = molecular target: DNA repair protein RAD52 homolog (Homo sapiens, UniProt P43351); format: functional, biochemical
[5] = molecular target: T2, Ubiquitin-conjugating enzyme E2 N (Homo sapiens, UniProt P61088); format: functional;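 also: Dose-response confirmation in a TR-FRET assay detecting UBC13-driven polyubiquitin chain formation, inhibition measured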
T2 sequence (P61088 whole entry): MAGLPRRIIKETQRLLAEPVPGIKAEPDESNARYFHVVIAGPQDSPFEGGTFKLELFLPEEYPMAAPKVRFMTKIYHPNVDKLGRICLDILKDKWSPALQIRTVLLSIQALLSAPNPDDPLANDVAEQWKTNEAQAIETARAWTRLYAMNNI

[6] = NIH3T3 cell viability loss – ATP luminescence, mouse fibroblasts, counter-screen, dose response (AID 2010); format: functional, cell-based;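 also: cells exposed to compound for about 90 hours before reading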
[7] = Trypanosoma cruzi growth suppression in host cells – NIH3T3 host cells, beta-gal luminescence, confirmation (AID 2044); format: functional, cell-based;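 also: intracellular parasites grown in NIH/3T3 mouse fibroblasts as host cells; luminescent beta-galactosidase reporter signal from transgenic T. cruzi replicating inside host cells; inhibitors lower the luminescence signal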
[8] = HGIII-sPLA2 enzyme inhibition potency – biochemical, QFRET, IC50, dose response (AID 743457);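 also: green fluorescence rise as the enzyme cleaves BODIPY PC-A2 in liposomes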
[9] = molecular target: T3, High affinity choline transporter 1 (Homo sapiens, UniProt Q9GZV3); assay: human choline transporter blockers, potency – cell-based, 5-point CRC, membrane potential dye, dose response (AID 504840); format: functional
T3 sequence (Q9GZV3 whole entry): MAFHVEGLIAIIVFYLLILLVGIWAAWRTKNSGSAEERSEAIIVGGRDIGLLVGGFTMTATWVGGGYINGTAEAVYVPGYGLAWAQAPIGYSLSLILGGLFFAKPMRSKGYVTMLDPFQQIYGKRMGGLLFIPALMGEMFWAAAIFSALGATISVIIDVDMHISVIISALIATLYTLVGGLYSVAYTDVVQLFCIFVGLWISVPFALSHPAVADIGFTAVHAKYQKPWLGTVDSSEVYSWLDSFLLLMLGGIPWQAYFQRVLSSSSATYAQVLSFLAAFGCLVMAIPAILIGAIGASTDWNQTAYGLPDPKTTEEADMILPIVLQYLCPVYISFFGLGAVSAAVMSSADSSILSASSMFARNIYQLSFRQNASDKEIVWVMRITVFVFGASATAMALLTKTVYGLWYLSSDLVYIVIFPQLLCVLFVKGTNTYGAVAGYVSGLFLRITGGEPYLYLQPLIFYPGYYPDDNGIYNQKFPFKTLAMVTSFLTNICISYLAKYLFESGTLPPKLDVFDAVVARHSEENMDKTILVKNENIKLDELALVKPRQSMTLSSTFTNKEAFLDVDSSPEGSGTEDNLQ

[10] = molecular target: DNA repair and recombination protein RAD54-like (Homo sapiens, UniProt Q92698); assay: RAD54 Holliday junction migration blockers – biochemical, fluorescence, cherry-picked samples, dose series, confirmation (AID 651657); format: functional
[11] = molecular target: T4, Oxysterols receptor LXR-beta (Homo sapiens, UniProt P55055); format: functional, cell-based;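 also: agonist activity at LXR measured by a cell-based luminescence readout across a dose range, run as a counterscreen for daf-12 agonists; HEK293 cells with Gal4-LXR fusion and GAL4-driven luciferase reporter; potency for activation of Gal4-LXR reporter so compounds are agonists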
T4 sequence (P55055 whole entry): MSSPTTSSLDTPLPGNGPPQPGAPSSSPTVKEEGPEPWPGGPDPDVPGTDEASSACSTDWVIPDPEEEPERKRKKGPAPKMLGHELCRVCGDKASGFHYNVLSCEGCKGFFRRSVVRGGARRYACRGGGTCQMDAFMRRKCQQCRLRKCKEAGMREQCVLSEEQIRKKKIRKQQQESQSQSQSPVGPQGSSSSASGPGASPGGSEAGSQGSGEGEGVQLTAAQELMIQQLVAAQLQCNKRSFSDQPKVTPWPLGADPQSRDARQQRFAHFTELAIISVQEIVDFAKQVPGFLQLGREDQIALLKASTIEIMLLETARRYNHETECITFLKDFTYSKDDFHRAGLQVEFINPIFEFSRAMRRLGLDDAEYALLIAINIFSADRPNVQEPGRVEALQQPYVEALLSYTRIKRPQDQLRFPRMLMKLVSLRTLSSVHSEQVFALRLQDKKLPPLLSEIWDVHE

[12] = molecular target: FAD-linked sulfhydryl oxidase ALR (Homo sapiens, UniProt P55789); assay: ALR-catalysed DTT oxidation blockers – biochemical, H2O2 detection, luminescence, cherry-pick, dose response (AID 493248)
Sequence of FAD-linked sulfhydryl oxidase ALR (P55789 whole entry): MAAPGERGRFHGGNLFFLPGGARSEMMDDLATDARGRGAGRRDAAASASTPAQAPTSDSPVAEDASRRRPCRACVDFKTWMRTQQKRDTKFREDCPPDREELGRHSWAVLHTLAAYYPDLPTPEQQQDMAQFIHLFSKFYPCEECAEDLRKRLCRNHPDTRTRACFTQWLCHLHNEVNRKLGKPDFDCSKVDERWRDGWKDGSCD

Sequence of Protein Wnt-3a (P27467 whole entry): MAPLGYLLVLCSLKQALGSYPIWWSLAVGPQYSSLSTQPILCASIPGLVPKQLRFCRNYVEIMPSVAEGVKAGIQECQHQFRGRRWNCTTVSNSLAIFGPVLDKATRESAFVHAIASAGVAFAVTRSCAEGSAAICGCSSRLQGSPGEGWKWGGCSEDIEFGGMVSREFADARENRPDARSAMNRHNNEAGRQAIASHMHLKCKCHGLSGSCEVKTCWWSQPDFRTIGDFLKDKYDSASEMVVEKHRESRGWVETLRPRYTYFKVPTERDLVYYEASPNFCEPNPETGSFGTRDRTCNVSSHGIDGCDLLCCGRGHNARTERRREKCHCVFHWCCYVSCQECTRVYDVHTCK
Sequence of DNA repair protein RAD52 homolog (P43351 whole entry): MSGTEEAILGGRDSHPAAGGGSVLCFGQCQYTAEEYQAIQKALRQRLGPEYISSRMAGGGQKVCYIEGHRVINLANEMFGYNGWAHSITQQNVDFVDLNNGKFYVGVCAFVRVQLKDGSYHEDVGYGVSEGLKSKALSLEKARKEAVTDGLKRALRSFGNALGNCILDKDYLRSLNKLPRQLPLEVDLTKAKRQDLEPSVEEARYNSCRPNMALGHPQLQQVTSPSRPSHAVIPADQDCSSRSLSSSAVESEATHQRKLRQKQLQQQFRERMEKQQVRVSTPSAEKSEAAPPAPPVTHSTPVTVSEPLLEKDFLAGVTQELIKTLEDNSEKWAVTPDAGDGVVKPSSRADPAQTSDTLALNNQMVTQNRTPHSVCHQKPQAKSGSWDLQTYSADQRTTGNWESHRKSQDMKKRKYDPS
Sequence of DNA repair and recombination protein RAD54-like (Q92698 whole entry, the tested form may be a part): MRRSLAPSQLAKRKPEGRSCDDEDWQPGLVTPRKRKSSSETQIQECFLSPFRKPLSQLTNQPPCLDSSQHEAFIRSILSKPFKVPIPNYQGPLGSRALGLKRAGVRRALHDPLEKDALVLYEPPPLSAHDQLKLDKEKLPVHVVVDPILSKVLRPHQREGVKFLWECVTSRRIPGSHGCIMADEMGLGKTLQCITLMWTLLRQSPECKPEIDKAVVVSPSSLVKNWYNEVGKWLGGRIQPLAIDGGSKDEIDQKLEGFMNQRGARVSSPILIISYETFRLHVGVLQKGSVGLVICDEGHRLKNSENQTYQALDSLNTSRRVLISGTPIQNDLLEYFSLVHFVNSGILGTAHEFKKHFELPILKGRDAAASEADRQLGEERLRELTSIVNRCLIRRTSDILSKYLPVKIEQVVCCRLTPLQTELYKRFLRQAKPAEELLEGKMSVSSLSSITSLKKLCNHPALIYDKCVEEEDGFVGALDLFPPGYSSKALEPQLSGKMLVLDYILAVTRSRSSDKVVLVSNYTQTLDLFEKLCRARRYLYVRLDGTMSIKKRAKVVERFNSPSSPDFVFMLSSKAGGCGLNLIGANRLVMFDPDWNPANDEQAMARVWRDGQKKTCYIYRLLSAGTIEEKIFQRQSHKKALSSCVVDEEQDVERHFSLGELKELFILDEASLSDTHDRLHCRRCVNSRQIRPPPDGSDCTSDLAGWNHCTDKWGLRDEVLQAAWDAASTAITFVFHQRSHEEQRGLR
Sequence of Trypsin (P00761 whole entry): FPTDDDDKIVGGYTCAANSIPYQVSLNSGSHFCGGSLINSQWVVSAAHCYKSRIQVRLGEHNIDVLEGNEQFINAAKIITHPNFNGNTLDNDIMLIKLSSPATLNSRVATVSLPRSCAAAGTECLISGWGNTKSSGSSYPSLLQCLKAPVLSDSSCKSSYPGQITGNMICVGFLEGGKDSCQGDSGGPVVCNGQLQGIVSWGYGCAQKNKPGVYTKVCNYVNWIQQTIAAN
Sequence of Protein disulfide-isomerase (P07237 whole entry): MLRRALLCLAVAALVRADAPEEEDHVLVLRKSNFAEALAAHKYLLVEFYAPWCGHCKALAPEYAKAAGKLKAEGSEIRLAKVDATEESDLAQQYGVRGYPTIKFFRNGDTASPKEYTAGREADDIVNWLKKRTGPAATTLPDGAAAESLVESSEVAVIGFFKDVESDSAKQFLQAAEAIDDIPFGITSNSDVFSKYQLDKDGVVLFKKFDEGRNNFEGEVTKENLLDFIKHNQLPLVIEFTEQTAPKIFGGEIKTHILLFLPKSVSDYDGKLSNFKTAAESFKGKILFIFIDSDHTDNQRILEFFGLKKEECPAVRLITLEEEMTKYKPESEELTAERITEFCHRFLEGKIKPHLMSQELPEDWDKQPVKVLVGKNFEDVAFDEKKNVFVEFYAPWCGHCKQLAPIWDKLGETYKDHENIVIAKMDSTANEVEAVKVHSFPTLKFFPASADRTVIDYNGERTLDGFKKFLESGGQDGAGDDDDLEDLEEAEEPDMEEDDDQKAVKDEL

SMILES: CC(C)N1CC2(CN(Cc3ccc(-c4cccnc4)cc3)C2)Oc2c(NC(=O)c3ccncc3)cccc2C1=O
AC50 [1]: 0.179 µM (active)

SMILES: Cc1ncoc1C(=O)Nc1ncc([N+](=O)[O-])s1
AC50 [2]: 26 µM (active)

SMILES: CCOC(=O)c1c(-c2ccccc2)oc2ccc(OCC(O)CNCCN(C)C)cc12 (stereo not drawn)
AC50 (CAAX prenyl protease 2): 11.8 µM (active) | AC50 (Trypsin): 10.3 µM (active) | AC50 [4]: 5 µM (active) | IC50 [5]: > 20 µM (inactive) | EC50 [6]: 5.42 µM (active) | EC50 [7]: 1.79 µM (active)

SMILES: O=C(NN=C(S)Nc1ccc(F)cc1)C1CC1c1ccc(Cl)cc1 (stereo not drawn)
IC50 [8]: > 122 µM (inactive) | IC50 [9]: 13.2 µM (active)

SMILES: Cc1nn(-c2ccccc2)c(Cl)c1/C=N/Nc1ccc(Cl)c(C(=O)O)c1
EC50 [11]: > 67.5 µM (inactive) | AC50 [12]: 0.907 µM (active)

SMILES: O=C(c1ccc(F)cc1)N1CCCCN2[C@@H](CO)[C@H](c3ccc(-c4ccccc4)cc3)[C@@H]2C1
AC50 [1]: 2.56 µM (active)

Now from value to molecule:

AC50 [3]: 5 µM (active)
SMILES: O=C(NC1CCCC1)C1(CCOc2ccccc2)CCN(Cc2ccc(O)c(Cl)c2)CC1

IC50 (Protein Wnt-3a): > 21.8 µM (inactive)
SMILES: CCN(CC)c1cc(NC(=O)c2ccccc2)ncn1

AC50 [10]: 24.6 µM (active) | AC50 [4]: 10.5 µM (active)
SMILES: CN(C)CCCN(C(=O)c1ccc([N+](=O)[O-])o1)c1nc2cc3c(cc2s1)OCO3

IC50 (Protein Wnt-3a): > 21.8 µM (inactive)
SMILES: CCN(CC)c1cc(NC(=O)c2cc(OC)cc(OC)c2)ncn1
